According to EPA's CvTdb concentration-time database:

Columns and labels:
Rat [1] = assay: concentration in plasma after dosing; settings: dosed: Isoeugenol, 17 mg/kg, oral, Female, F344/N
Rat [2] = assay: concentration in plasma after dosing; settings: 5 min; dosed: Isoeugenol; 17 mg/kg; oral; Male; F344/N
Rat [3] = assay: concentration in plasma after dosing; settings: dosed: Isoeugenol, 17 mg/kg, oral, Male, F344/N
Rat [4] = assay: concentration in plasma after dosing; settings: dosed: Isoeugenol, 17 mg/kg, oral, Female, F344/N; remark: listed apart in the source
Rat [5] = assay: concentration in plasma after dosing; settings: dosed: Isoeugenol, 17 mg/kg, oral, Male, F344/N; remark: listed apart in the source
Rat [6] = assay: concentration in plasma after dosing; settings: dosed: Isoeugenol, 17 mg/kg, oral, Male, F344/N; remark: listed apart in the source
Rat [7] = assay: concentration in plasma after dosing; settings: dosed: Isoeugenol, 70 mg/kg, oral, Male, F344/N
Rat [8] = assay: concentration in plasma after dosing; settings: dosed: Isoeugenol, 17 mg/kg, oral, Female, F344/N; remark: listed apart in the source
Rat [9] = assay: concentration in plasma after dosing; settings: 2 min; dosed: Isoeugenol; 17 mg/kg; oral; Male; F344/N
Rat [10] = assay: concentration in plasma after dosing; settings: dosed: Isoeugenol, 17 mg/kg, oral, Female, F344/N; remark: listed apart in the source
Rat [11] = assay: concentration in plasma after dosing; settings: 0.5 h; dosed: Isoeugenol; 70 mg/kg; oral; Male; F344/N
Rat [12] = assay: concentration in plasma after dosing; settings: dosed: Isoeugenol, 17 mg/kg, oral, Female, F344/N; remark: listed apart in the source
Rat [13] = assay: concentration in plasma after dosing; settings: 20 min; dosed: Isoeugenol; 17 mg/kg; oral; Male; F344/N
Rat [14] = assay: concentration in plasma after dosing; settings: dosed: Isoeugenol, 70 mg/kg, oral, Male, F344/N; remark: listed apart in the source
Rat [15] = assay: concentration in plasma after dosing; settings: dosed: Isoeugenol, 17 mg/kg, oral, Female, F344/N; remark: listed apart in the source
Rat [16] = assay: concentration in plasma after dosing; settings: dosed: Isoeugenol, 17 mg/kg, oral, Male, F344/N; remark: listed apart in the source
Rat [17] = assay: concentration in plasma after dosing; settings: 5 min; dosed: Isoeugenol; 17 mg/kg; oral; Male; F344/N; remark: listed apart in the source
rat [18] = assay: concentration in blood after dosing; settings: dosed: styrene, 3000 ppm, dermal, duration: 4 hr, male, F344
rat [19] = assay: concentration in blood after dosing; settings: dosed: styrene, 3000 ppm, dermal, duration: 4 hr, male, F344; remark: listed apart in the source
rat [20] = assay: concentration in blood after dosing; settings: dosed: styrene, 3000 ppm, dermal, duration: 4 hr, male, F344; remark: listed apart in the source
rat [21] = assay: concentration in blood after dosing; settings: dosed: styrene, 3000 ppm, dermal, duration: 4 hr, male, F344; remark: listed apart in the source
Rat [22] = assay: concentration in plasma after dosing; settings: 2 h; dosed: Tetralin; 20 mg/kg; iv; Female; Harlan Sprague Dawley
Rat [23] = assay: concentration in plasma after dosing; settings: dosed: Tetralin, 2 mg/kg, iv, Male, F344
Rat [24] = assay: concentration in plasma after dosing; settings: dosed: Tetralin, 20 mg/kg, iv, Female, Harlan Sprague Dawley
Rat [25] = assay: concentration in plasma after dosing; settings: dosed: Tetralin, 2 mg/kg, iv, Male, F344; remark: listed apart in the source
Rat [26] = assay: concentration in plasma after dosing; settings: 1 h; dosed: Tetralin; 2 mg/kg; iv; Male; Harlan Sprague Dawley
Rat [27] = assay: concentration in plasma after dosing; settings: dosed: Tetralin, 2 mg/kg, iv, Male, F344; remark: listed apart in the source
Rat [28] = assay: concentration in plasma after dosing; settings: 2 h; dosed: Tetralin; 2 mg/kg; iv; Male; F344
Rat [29] = assay: concentration in plasma after dosing; settings: 2 h; dosed: Tetralin; 2 mg/kg; iv; Male; F344; remark: listed apart in the source
Rat [30] = assay: concentration in plasma after dosing; settings: dosed: Tetralin, 20 mg/kg, iv, Female, Harlan Sprague Dawley; remark: listed apart in the source
Rat [31] = assay: concentration in plasma after dosing; settings: dosed: Tetralin, 2 mg/kg, iv, Male, F344; remark: listed apart in the source
Rat [32] = assay: concentration in plasma after dosing; settings: dosed: Tetralin, 2 mg/kg, iv, Male, Harlan Sprague Dawley
Rat [33] = assay: concentration in plasma after dosing; settings: dosed: Tetralin, 20 mg/kg, iv, Female, Harlan Sprague Dawley; remark: listed apart in the source
Rat [34] = assay: concentration in plasma after dosing; settings: 2 h; dosed: Tetralin; 20 mg/kg; iv; Female; Harlan Sprague Dawley; remark: listed apart in the source
Rat [35] = assay: concentration in plasma after dosing; settings: dosed: Tetralin, 2 mg/kg, iv, Male, Harlan Sprague Dawley; remark: listed apart in the source
Rat [36] = assay: concentration in plasma after dosing; settings: dosed: Tetralin, 2 mg/kg, iv, Male, Harlan Sprague Dawley; remark: listed apart in the source

C/C=C/c1ccc(O)c(OC)c1 [Isoeugenol]
Settings	concentration in plasma [µg/mL]
Rat [1], 0.75 h	0.0403
Rat [1], 6 h	0.0744
Rat [3], 1 h	0.0284
Rat [3], 3 h	0.0686
Rat [4], 1 h	0.0227
Rat [4], 3 h	0.0295
Rat [5], 0.5 h	0.0954
Rat [5], 2 h	0.0302
Rat [6], 0.75 h	0.057
Rat [6], 8 h	0.0195
Rat [7], 2 h	0.0684
Rat [7], 2 min	0.711
Rat [8], 5 h	0.0283
Rat [8], 10 min	0.43
Rat [10], 1.5 h	0.0529
Rat [10], 5 min	0.355
Rat [12], 0.5 h	0.243
Rat [12], 8 h	0.018
Rat [14], 1.5 h	0.209
Rat [14], 5 min	0.526
Rat [15], 5 min	0.375
Rat [15], 6 h	0.16
Rat [16], 1.5 h	0.0343
Rat [16], 2 min	0.0383

Settings	concentration in plasma [µg/mL]
Rat [2]	0.238
Rat [9]	0.0356
Rat [11]	0.469
Rat [13]	0.132
Rat [17]	0.194

C=Cc1ccccc1 [styrene]
concentration in blood [µg/mL]
Settings	0.5 h	1 h	2 h	3 h	4 h
rat [18]	2.86	8.01	4.91	11.3	10.2
rat [19]	1.55	3.45	4.65	8.18	8.81
rat [20]	1.87	2.43	5.54	6.07	7.9
rat [21]	7.76	7.04	11.5	7.24	13

c1ccc2c(c1)CCCC2 [Tetralin]
Settings	concentration in plasma [µg/g]
Rat [22]	0.628
Rat [26]	0.0313
Rat [28]	0.0271
Rat [29]	0.0337
Rat [34]	0.52

Settings	concentration in plasma [µg/g]
Rat [23], 1 h	0.0668
Rat [23], 24 h	0.00063
Rat [24], 0.25 h	10.9
Rat [24], 6 h	0.111
Rat [25], 4 h	0.00972
Rat [25], 308 s	1.77
Rat [27], 0.09 h	1.33
Rat [27], 4 h	0.0088
Rat [30], 1 h	1.98
Rat [30], 24 h	0.0136
Rat [31], 1 h	0.066
Rat [31], 24 h	0.00085
Rat [32], 4 h	0.00854
Rat [32], 5 min	1.74
Rat [33], 1 h	0.797
Rat [33], 24 h	0.00536
Rat [35], 0.2533 h	0.406
Rat [35], 6 h	0.00586
Rat [36], 4 h	0.0072
Rat [36], 307 s	1.62
